For assay [1], the target named is T1, full-length His6-Max (MAX^1-160) (Homo sapiens, UniProt P61244).
T1 construct: N.B. (MAX^1-160)
Description: Fluorescence polarization direct binding to His6-MAX. Conditions: FP direct binding; 15 nM FITC-labeled peptide; His6-MAX from 10 μM; 1X PBS, 1 mM DTT, 5% glycerol, 0.1% pluronic acid, pH 6.7; 25 °C. Here is the method:
(§1) Fluorescence Polarization Binding Assay
(§2) The relative affinities of FITC-CHDMax-1 to His6-Myc353-436 and full-length His6-Max were
(§3) determined using fluorescence polarization-based direct binding assay. The polarization
(§4) experiments were performed using a DTX 880 Multimode Detector (Beckman) at 25 °C with
(§5) excitation and emission wavelengths of 485 and 525 nm, respectively. Each polarization
(§6) experiment was performed in a 96-well round bottom plate (Greiner) in assay buffer: 1X PBS, 1
(§7) mM DTT, 5% glycerol, 0.1% pluronic acid, pH 6.7. The binding affinity (KD) values reported for
(§8) each peptide are from experiments performed in triplicate. Raw values were fit to a sigmoidal
(§9) dose-response nonlinear regression model in GraphPad Prism 6.0.
(§10) All binding experiments with FITC-labeled peptides to His6-Myc353-436 or His6-Max were performed
(§11) under the same conditions. Briefly, serial dilutions of His6-Myc353-436 and His6-Max were made
(§12) from 10 μM into 15 nM of FITC-labeled peptide in assay buffer. KD was determined using the
(§13) KD1 = (RT*(1-FSB) + LST*FSB2)/FSB-LST
(§14) RT = Total concentration of His6-Myc353-436 or His6-Max
(§15) LST = Total concentration of FITC-labeled peptide
(§16) FSB = Fraction of bound FITC-labeled peptide

Assay [2] addresses T2, recombinant human MYC^353–437 protein (His6-MYC^353–437) (Homo sapiens, UniProt P01106).
T2 construct: recombinant human MYC^353–437 protein; made in house; host or cells: E. coli BL21(DE3), pET151-D-TOPO-cMyc vector
Description: Fluorescence polarization direct binding of fluorescein-labeled CHDs to His6-MYC353-437. Conditions: FP direct binding; 15 nM FITC-labeled peptide; His6-MYC serial dilutions from 10 μM; 1X PBS, 1 mM DTT, 5% glycerol, 0.1% pluronic acid, pH 6.7; 25 °C; triplicate; MYC aggregates above 5 μM; read-out: Binding Affinity MYC^353-436, Kd. Here is the method: pET151-D-TOPO-cMyc vector was kindly provided by Dr. Edward Prochownik from the
Department of Pediatrics at UPMC Children’s Hospital of Pittsburgh. Expression and purification
of Myc353-437 were performed using an established protocol with minor modifications.7 BL21(DE3)
cells were used to express recombinant Myc353-437 protein. Bacteria were grown at 37 °C to OD600
of 0.8 followed by 1 mM IPTG induction and 16-18h growth at RT. Cells were harvested via
centrifugation at 4,000 rpm at 4 °C and the pellet was resuspended in 10 mL of lysis buffer (8 M
urea, 100 mM NaH2PO4, 10 mM Tris HCl, pH 8) supplemented with protease inhibitor cocktail
(PierceTM Protease Inhibitor Tablets) and benzonase nuclease. Suspensions were sonicated on
ice using a Branson Cell Disruptor 200 and centrifuged at 12,000 rpm for 45 min at 4 °C. Clarified
lysate was applied to a column containing pre-equilibrated HisPur Ni-NTA Superflow Agarose
(ThermoFisher Scientific) for overnight at 4 °C. The resin beads were washed with 10 mL of
additional lysis buffer followed by three washes of 10 mL wash buffer (8 M urea, 100 mM
NaH2PO4, 10 mM Tris HCl, 10 mM imidazole). The target protein was eluted with elution buffer (8
M urea, 100 mM NaH2PO4, 10 mM Tris HCl, 250 mM imidazole) and buffer exchanged into 150
mM NaCl, 50 mM Tris HCl, 5% glycerol, pH 6.7. Protein was concentrated by ultra-filtration (3000
MWCO; Amicon Ultra-15 Centrifugal Filter units from EMD Millipore) followed by TEV cleavage
(1:100 w/w of protease to target protein) in 150 mM NaCl, 50 mM Tris HCl, 5% glycerol, pH 6.7
for 24 hrs at 4 °C. The cleaved protein is further purified by reverse-phase HPLC (gradient 10-60
acetonitrile/water with 0.1% TFA over 35 min) to remove TEV protease and un-cleaved protein.
Purified Myc353-437 was lyophilized and stored at -20 °C. Myc353-437 identity was characterized by
as §1, §2, §3, §4, §5, §6, §7, §8, §9, §10, §11, §12, §13, §14, §15, §16

Starred links: 1 amine or outer side, 2 acyl side, 3 side chain; linkers in the order of their positions; H or OH if unused. Positions of bridges follow the written chain, without caps; N, C: chain ends. Residues, ends and D or L forms follow the SMILES beside them. Chains are numbered I, II in the order given. *: point of attachment. FITC = O=C1OC2(c3ccc(O)cc3Oc3cc(O)ccc32)c2ccc(NC(=S)*)cc21; X1 = c1cc(C[*:1])ccc1COCc1ccc(C[*:2])cc1; βAla = NCCC(=O)O

In general, Kd refers to a measure of binding affinity in units of concentration.

T2 sequence (P01106 368-452): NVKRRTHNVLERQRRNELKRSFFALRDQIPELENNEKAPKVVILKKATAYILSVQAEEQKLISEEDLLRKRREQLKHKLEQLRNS
T1 sequence (P61244 whole entry): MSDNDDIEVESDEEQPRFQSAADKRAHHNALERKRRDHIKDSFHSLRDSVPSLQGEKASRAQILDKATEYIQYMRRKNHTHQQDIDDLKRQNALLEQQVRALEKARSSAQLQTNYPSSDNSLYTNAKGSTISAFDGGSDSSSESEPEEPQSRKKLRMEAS

With `CC[C@H](C)[C@H](NC(=O)[C@H](CCCCN)NC(=O)[C@H](CCC(=O)O)NC(=O)[C@H](CCCNC(=N)N)NC(=O)[C@H](CC(C)C)NC(=O)CCNC(=S)Nc1ccc2c(c1)C(=O)OC21c2ccc(O)cc2Oc2cc(O)ccc21)C(=O)N[C@@H](C)C(=O)N[C@H](C(=O)N[C@@H](CC(C)C)C(=O)N[C@@H](CCC(N)=O)C(=O)N[C@@H](Cc1c[nH]c2ccccc12)C(=O)N[C@@H](CSCc1ccc(COCc2ccc(CSC[C@H](NC(=O)[C@H](CC(C)C)NC(=O)[C@H](CCC(=O)O)NC(=O)[C@H](CCC(=O)O)NC(=O)[C@@H](NC(=O)[C@H](CCC(=O)O)NC(=O)[C@H](Cc3c[nH]c4ccccc34)NC(=O)[C@H](CCC(N)=O)NC(=O)[C@H](Cc3c[nH]cn3)NC(=O)[C@@H](NC(=O)[C@H](CCC(=O)O)NC(=O)[C@H](CC(N)=O)NC(=O)[C@H](CCCCN)NC(=O)[C@H](CCCNC(=N)N)NC(=O)[C@H](CCCNC(=N)N)NC(=O)[C@H](CC(C)C)NC(C)=O)[C@@H](C)O)[C@@H](C)CC)C(N)=O)cc2)cc1)C(=O)N[C@H](C(=O)N[C@@H](CCC(=O)O)C(=O)N[C@@H](CCC(=O)O)C(=O)N[C@@H](CC(C)C)C(=O)N[C@@H](CCCNC(=N)N)C(=O)N[C@@H](CCCCN)C(N)=O)[C@@H](C)CC)[C@@H](C)O` [FITC–CHD^Max-1] (I: {FITC-βAla}-LREKIATLQWCIEELRK-NH2 / II: Ac-LRRKNETHQWEIEELC-NH2; linker I:11-II:16 via X1), in assay [1], the “CHD^Max-1 Binding Affinity, Kd (MAX^1-160)” value is on record as “no binding was observed”. For the same molecule, the Kd in assay [2] came out at 0.35 ± 0.017 µM.
In the case of `CC[C@H](C)[C@H](NC(=O)[C@H](CCC(=O)O)NC(=O)[C@H](Cc1c[nH]c2ccccc12)NC(=O)[C@H](CCC(N)=O)NC(=O)[C@H](C)NC(=O)[C@@H](NC(=O)[C@H](CCC(=O)O)NC(=O)[C@H](C)NC(=O)[C@H](CCCCN)NC(=O)[C@H](CCCNC(=N)N)NC(=O)[C@H](CCCNC(=N)N)NC(=O)[C@H](CC(C)C)NC(C)=O)[C@@H](C)O)C(=O)N[C@@H](CCC(=O)O)C(=O)N[C@@H](CCC(=O)O)C(=O)N[C@@H](CC(C)C)C(=O)N[C@@H](CSCc1ccc(COCc2ccc(CSC[C@H](NC(=O)[C@H](Cc3c[nH]c4ccccc34)NC(=O)[C@H](CCC(N)=O)NC(=O)[C@H](CC(C)C)NC(=O)[C@@H](NC(=O)[C@H](C)NC(=O)[C@H](C)NC(=O)[C@H](CCCCN)NC(=O)[C@H](CCC(=O)O)NC(=O)[C@H](CCCNC(=N)N)NC(=O)[C@H](CC(C)C)NC(C)=O)[C@@H](C)O)C(=O)N[C@H](C(=O)N[C@@H](CCC(=O)O)C(=O)N[C@@H](CCC(=O)O)C(=O)N[C@@H](CC(C)C)C(=O)N[C@@H](CCCNC(=N)N)C(=O)N[C@@H](CCCCN)C(N)=O)[C@@H](C)CC)cc2)cc1)C(N)=O` [CHD^Max-3] (I: Ac-LREKAATLQWCIEELRK-NH2 / II: Ac-LRRKAETAQWEIEELC-NH2; linker I:11-II:16 via X1), the dissociation constant (Kd) in assay [2] was above 5 µM.
On to `CC[C@H](C)[C@H](NC(=O)[C@H](CCCCN)NC(=O)[C@H](CCC(=O)O)NC(=O)[C@H](CCCNC(=N)N)NC(=O)[C@H](CC(C)C)NC(C)=O)C(=O)N[C@@H](C)C(=O)N[C@H](C(=O)N[C@@H](CC(C)C)C(=O)N[C@@H](CCC(N)=O)C(=O)N[C@@H](Cc1c[nH]c2ccccc12)C(=O)N[C@@H](CSCc1ccc(COCc2ccc(CSC[C@H](NC(=O)[C@H](CC(C)C)NC(=O)[C@H](CCC(=O)O)NC(=O)[C@H](CCCNC(=N)N)NC(=O)[C@@H](NC(=O)[C@H](CCCNC(=N)N)NC(=O)[C@H](Cc3c[nH]c4ccccc34)NC(=O)[C@H](CCC(N)=O)NC(=O)[C@H](Cc3c[nH]cn3)NC(=O)[C@@H](NC(=O)[C@H](CCC(=O)O)NC(=O)[C@@H](NC(=O)[C@H](CCCNC(=N)N)NC(=O)[C@H](C)NC(=O)[C@H](CCC(=O)O)NC(=O)[C@H](CC(C)C)NC(C)=O)[C@@H](C)CC)[C@@H](C)O)[C@@H](C)CC)C(=O)N[C@@H](CCC(=O)O)C(N)=O)cc2)cc1)C(=O)N[C@H](C(=O)N[C@@H](CCC(=O)O)C(=O)N[C@@H](CCC(=O)O)C(=O)N[C@@H](CC(C)C)C(=O)N[C@@H](CCCNC(=N)N)C(=O)N[C@@H](CCCCN)C(N)=O)[C@@H](C)CC)[C@@H](C)O` [CHD^Max-2] (I: Ac-LEARIETHQWRIRELCE-NH2 / II: Ac-LREKIATLQWCIEELRK-NH2; linker I:16-II:11 via X1), for which, in assay [2], the Kd is 0.88 ± 0.053 µM.
With `CC[C@H](C)[C@H](NC(=O)[C@H](CCC(=O)O)NC(=O)[C@H](Cc1c[nH]c2ccccc12)NC(=O)[C@H](CCC(N)=O)NC(=O)[C@H](C)NC(=O)[C@@H](NC(=O)[C@H](CCC(=O)O)NC(=O)[C@H](C)NC(=O)[C@H](CCCCN)NC(=O)[C@H](CCCNC(=N)N)NC(=O)[C@H](CCCNC(=N)N)NC(=O)[C@H](CC(C)C)NC(C)=O)[C@@H](C)O)C(=O)N[C@@H](CCC(=O)O)C(=O)N[C@@H](CCC(=O)O)C(=O)N[C@@H](CC(C)C)C(=O)N[C@@H](CSCc1ccc(COCc2ccc(CSC[C@H](NC(=O)[C@H](Cc3c[nH]c4ccccc34)NC(=O)[C@H](CCC(N)=O)NC(=O)[C@H](CC(C)C)NC(=O)[C@@H](NC(=O)[C@H](C)NC(=O)[C@H](C)NC(=O)[C@H](CCCCN)NC(=O)[C@H](CCC(=O)O)NC(=O)[C@H](CCCNC(=N)N)NC(=O)[C@H](CC(C)C)NC(=O)CCNC(=S)Nc3ccc4c(c3)C(=O)OC43c4ccc(O)cc4Oc4cc(O)ccc43)[C@@H](C)O)C(=O)N[C@H](C(=O)N[C@@H](CCC(=O)O)C(=O)N[C@@H](CCC(=O)O)C(=O)N[C@@H](CC(C)C)C(=O)N[C@@H](CCCNC(=N)N)C(=O)N[C@@H](CCCCN)C(N)=O)[C@@H](C)CC)cc2)cc1)C(N)=O` [FITC–CHD^Max-3] (I: {FITC-βAla}-LREKAATLQWCIEELRK-NH2 / II: Ac-LRRKAETAQWEIEELC-NH2; linker I:11-II:16 via X1), the Kd in assay [2] was above 5 µM.
